Results published in US20120264231A1, “ASSAY FOR ORAI CALCIUM CHANNEL REGULATORS” (IMMUNE DISEASE INSTITUTE, INC., priority 2009, published 2012).

Experiments:
[1] = system: STIM1−/− T cells; experiment: Single-cell [Ca2+]i measurement in STIM1−/− T cells expressing STIM1 fragments; format: cell-based, murine; conditions: for constitutive Ca^2+ influx: retroviral expression, Fura-2
Source text: To determine the competence of STIM 1 fragments to activate ORAI1 in mammalian cells, Myc-tagged STIM 1^CT and its truncated variants were introduced by retroviral expression into STIM1−/− T cells, and their ability to elevate resting Ca^2+ permeability was examined in cells loaded with Fura-2. As in human Jurkat T cells (Huang, G. N., et al., (2006); supra), expression of the soluble cytoplasmic portion of STIM 1 activated Ca^2+ influx into STIM1−/− murine T cells (FIG. 11). Elevated Ca^2+ permeability was evident in a marked increase in cytoplasmic [Ca^2+] on changing to medium containing 2 mM Ca^2+ after brief exposure to nominally Ca^2+-free medium. […] Retroviral vector alone conferred no constitutive influx above the level in control cells, as previously shown (Oh-hora, M., et al., (2008), supra).
Retroviral expression plasmids encoding mouse STIM 1 and its cytoplasmic fragments (residues 233-685, 233-600, 233-498, or 233-463) were constructed by inserting the corresponding coding sequences between the XhoI and EcoRI sites of the vector pMSCV-CITE-eGFP-PGK-Puro (Clontech), which allows for coexpression of the inserted gene, GFP, and a puromycin resistance gene. GFP expression was used to estimate transducing efficiency.
Primary CD4^+ cells were purified from spleen and lymph nodes of Stim1^f1/f1 CD4-Cre^+ mice using Dynal magnetic beads (Invitrogen) following the manufacturer's instructions. Purified T cells were stimulated with anti-CD3 and anti-CD28, transduced with retroviruses obtained from transfected Phoenix packaging cells, and further expanded in IL-2-containing medium as described (Oh-hora, M., et al., Nat Immunol 9, 432-443 (2008); Ansel, K. M., et al., Nat Immunol 5, 1251-1259 (2004)). The transduction efficiency (>80%) was estimated by evaluating GFP expression using flow cytometry.
Retrovirus-transduced CD4^+ cells isolated from Stim1^f1/f1 CD4-Cre^+ mice were incubated overnight in IL-2 free RPMI medium and loaded with 2 μM Fura-2-acetoxylmethyl ester (Invitrogen) for 45 min at ambient temperature in the dark. T cells were further attached to coverslips precoated with 0.01% poly-L-lysine, mounted to a RC-20 closed-bath flow chamber (Warner Instrument), and bathed in Ringer's solution (155 mM NaCl, 4.5 mM KCl, 2 mM CaCl2, 1 mM MgCl2, 10 mM D-glucose and 5 mM HEPES, pH 7.4). For nominally Ca^2+-free Ringer's solution CaCl2 was replaced with MgCl2. After 5 minutes of equilibration in Ringer's solution, [Ca^2+]i measurement commenced with ˜3 min perfusion of T cells with Ca^2+-free Ringer's solution at ambient temperature, followed by perfusion of Ringer's solution containing 2 mM CaCl2. The cycle was repeated once with final addition of Ringer's solution supplemented with 2 μM LaCl3 to block Ca^2+ flux. Images were acquired using a Zeiss Axiovert S200 epifluorescence microscope and OpenLab imaging analysis software (Improvision). The fluorescence data (F340 nm/F380 nm) were collected every 4 s and analyzed as described (Oh-hora, M., et al., (2008), supra; Feske, S., et al., Nature 441, 179-185 (2006)). In each experiment, for each experimental condition, 50-100 GFP-positive CD4+ T cells were analyzed.

[2] = biological target: ORAI1 (Homo sapiens, UniProt Q96D31); experiment: Confocal localization of mCherry-STIM1 proteins in HEK293 cells; format: cell-based; set-up: expressed in transfected cells; host or cells: HEK293; conditions: mCherry-STIM1 proteins coexpressed with ORAI1 in HEK293 cells
Source text: The localization of mCherry-STIM1 proteins in transiently-transfected HEK293 cells was investigated. mCherry-STIM1 (233-683), or (233-498) or (233-463) expressed alone, and also mCherry-STIM (233-683), or (233-498) or (233-463) expressed with ORAI-EYFP in the plasmid ratios 1:0, 0.5:1, 1:1, and 2:1 were examined. […] This is consistent with the functional assay in T cells and with recent reports in the literature (Muik, M., et al., J Biol Chem 283, 8014-8022 (2008); Penna, A., et al., Nature 456, 116-120 (2008); Ji, W., et al., Proc Natl Acad Sci USA 105, 13668-13673 (2008); Yuan, J. P., et al., Nat Cell Biol 11, 337-34 3 (2009); Muik, M., et al., J Biol Chem 284, 8421-8426 (2009); Park, C. Y., et al., Cell 136, 876-890 (2009)). […] The contrasting failure to detect binding of STIM 1 (233-463) in vitro might conceivably reflect the state of the bacterially-expressed protein as a mixture of trimers, tetramers, and undefined large aggregates. A more intriguing possibility, however, is that a weak interaction of STIM 1 (233-463) with ORAI is stabilized and rendered productive by additional proteins in mammalian cells.
An ORAI1-YFP expression plasmid was constructed by cloning the human ORAI1 cDNA (accession number NM_032790) into the vector pEYFP-N1 between the EcoRI and AgeI sites, in frame with the YFP coding sequence. mCherry-tagged STIM 1^CT fragments were made by subcloning mCherry between the BamHI and EcoRI sites of the vector pcDNA3.1(+) (Invitrogen), and subsequently inserting cDNA encoding STIM1^CT fragments between the EcoRI and XhoI sites.
HEK293 cells were transiently transfected with ORAI-YFP or mCherry-STIM plasmids using Lipofectamine 2000 (Invitrogen) according to the manufacturer's instructions. At 48 h post-transfection, confocal imaging was performed on a Zeiss LSM 510 laser scanning microscope with a 100× oil-immersion objective lens. YFP was excited at 488 nm with an argon laser and mCherry at 543 nm with a HeNe laser. All the experiments were carried out with cells bathed in Hanks' Balanced Salt Solution at 37° C.

Sequence of ORAI1 (Q96D31 whole entry): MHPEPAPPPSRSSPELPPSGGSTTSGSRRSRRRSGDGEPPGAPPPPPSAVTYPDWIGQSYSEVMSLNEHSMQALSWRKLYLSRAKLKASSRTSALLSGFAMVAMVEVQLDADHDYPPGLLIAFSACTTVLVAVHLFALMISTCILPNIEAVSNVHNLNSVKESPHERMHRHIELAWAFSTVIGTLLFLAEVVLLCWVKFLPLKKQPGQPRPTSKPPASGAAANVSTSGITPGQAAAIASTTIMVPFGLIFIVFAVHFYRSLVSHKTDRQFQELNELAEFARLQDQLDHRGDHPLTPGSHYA

localization at plasma membrane [2]	Substance	steepest rise of cytoplasmic [Ca^2+] ([1]; on changing to medium containing 2 mM Ca^2+)	maximum levels of cytoplasmic Ca^2+ ([1]; compared with STIM1^CT)	rate of rise of cytoplasmic Ca^2+ ([1]; compared with STIM1^CT)	constitutive Ca^2+ influx [1]
decorated the plasma membrane	STIM1 (233-498): truncated mouse STIM1 cytoplasmic fragment, residues 233-498, His-tagged recombinant protein	–	somewhat less than with STIM1^CT	nearly comparable to the rate with STIM 1^CT	activated a prominent constitutive Ca^2+ influx
decorated the plasma membrane	STIM1 (233-463): truncated mouse STIM1 cytoplasmic fragment, residues 233-463, His-tagged recombinant protein	–	–	–	smaller but very clear constitutive Ca^2+ influx

Substance	localization at plasma membrane [2]	steepest rise of cytoplasmic [Ca^2+] ([1]; on changing to medium containing 2 mM Ca^2+)	maximum levels of cytoplasmic Ca^2+ ([1]; compared with STIM1^CT)	rate of rise of cytoplasmic Ca^2+ ([1]; compared with STIM1^CT)	constitutive Ca^2+ influx [1]
STIM1^CT: cytoplasmic region of STIM1, mouse residues 233-685, His-tagged recombinant protein expressed in E coli	decorated the plasma membrane	~15 nM/s	–	–	–
